Structures are written as SMILES.

We go through one compound from patent US20080031968A1, “Methods for increasing cellular energy expenditure” (priority 2005, published 2008).

What all share (assay type): in vivo, mouse
Test [1] has as its system KK-Ay mice. In words: CA or GW4064 treatment of KK-Ay mice, serum lipids. Particulars: KK-Ay mice; for lowered circulating TG levels / total plasma cholesterol decreased: 1 week. Here is the method: (§1) Male C57BL/6J, KK-Ay, and ob/ob (C57BL/6J background) mice, 6-10 weeks of age, were obtained from Elevage Janvier (Le Genest St. Isle, France), CLEA Japan Inc. (Tokyo, Japan), and The Jackson Laboratory (Bar Harbor, Me., USA), respectively. All mice were maintained in a temperature-controlled (23° C.) facility with a 12-hour light/dark cycle and were given free access to food and water. The study protocols were approved by the institutional review boards. The body weight and food intake were measured every second day. The control and high-fat diet was obtained from UAR (Villemoisson sur Orge, France). […] The mice were fasted 4 hours before harvesting blood for subsequent lipid measurements, and tissues for RNA isolation, lipid measurements, and histology.
(§2) For measurement of liver TGs and cholesterol content, a liver was homogenized in chloroform/methanol (2:1 v/v) using a Polytron tissue grinder (Kinematica AG, Luzern, Switzerland). Lipid extracts were prepared by the classical Folch method. Extracts were dried under N2 flow and resuspended in isopropanol.

Test [2] deals with KK-Ay mice. Nature of the test: Liver TG and cholesterol content and histology in KK-Ay mice. Here is the method: as §1, §2
In the next test the test system is C57BL/6J mice. Nature of the test: LXR agonist-induced lipogenesis in C57BL/6J mice with or without CA. Here is the method: as §1
Mice were gavaged with the LXR agonist T0901317 or vehicle, and the different diets were continued for one more day, after which the mice were sacrificed.

For another test, the system named is SHP+/+ and SHP-/- mice. Nature of the test: FXR agonists in SHP+/+ and SHP-/- mice. To be noted: for hepatic expression of SREBP-1c, ME, CYP7A1 and ANGPTL3: 1-day treatment. Here is the method:
as §1

The test system of test [3] is KK-Ay mice. Nature of the test: CA in KK-Ay mice, body weight, OGTT and IPITT. Here is the method: Male C57BL/6J and KK-Ay mice, 6-7 weeks of age, were obtained from Charles River Laboratories France (l'Arbresle, France) and CLEA Japan Inc. (Tokyo, Japan), respectively. […] All mice were maintained in a temperature-controlled (23° C.) facility with a 12 h light/dark cycle and were given free access to food and water. The control and high-fat diet was obtained from UAR (Villemoison surOrge, France). […] GW4064 was suspended in peanut oil and mixed with the high fat diet at a concentration of 180 mg per kg of food. […] The mice were fasted 4 h before harvesting blood for subsequent blood measurements, and tissues for RNA isolation, lipid measurements and histology. Oxygen consumption was measured using the Oxymax apparatus (Columbus Instruments, Columbus, Ohio).
An OGTT was performed in animals that were fasted overnight. Glucose was administered by gavage at a dose of 2 g/kg. An IPITT was done in 4 h fasted animals. Insulin was injected at a dose of 0.75 U/kg. Glucose quantification was done with the Maxi Kit Glucometer 4 (Bayer Diagnostic, Puteaux, France) or Glucose RTU (bioMérieux Inc., Marcy l'Etoile, France). Plasma insulin concentrations were measured using ELISA (Cristal Chem Inc., Downers Grove, Ill.). Nonesterified fatty acids, triglycerides, ketone bodies, BA and total cholesterol were determined by enzymatic assays (Roche, Mannheim, Germany). cAMP was measured using the cAMP-Screen system (Applied Biosystems, Bedford, Mass.).

[4] abbreviates: CA feeding, HPLC of lipoproteins.
Where [5] appears, read: CA coadministration with T0901317.
Where [6] appears, read: KK-Ay mice, CA added to normal chow diet.

For the compound `C[C@H](CCC(=O)O)[C@H]1CC[C@H]2[C@@H]3[C@H](O)C[C@@H]4C[C@H](O)CC[C@]4(C)[C@H]3C[C@H](O)[C@]12C` [CA, cholic acid], in the test with KK-Ay mice [1] (setting [4]), the HDL cholesterol entry is reported as “decreasing HDL cholesterol” and the “VLDL TGs” value is given as “decreasing VLDL TGs”. Further, the “plasma FFAs” value with KK-Ay mice [1] (CA feeding, particularly on high-fat diet) was “decreased plasma FFAs”. Besides, in the test with KK-Ay mice [1] (high-fat diet with 0.5% CA), the “lowered circulating TG levels” value was determined as 65% and the “total plasma cholesterol decreased” value is 35%. Also, in the test on KK-Ay mice [1] (normal-chow diet with 0.5% CA), the “lowered circulating TG levels” value is 51% and the “total plasma cholesterol decreased” value is 24%. Moreover, the “liver TGs content” value in the test with KK-Ay mice [2] (CA 3 weeks, chow or high-fat diet) is recorded as “significantly lower”. Further, the hepatic cholesterol entry in the test with KK-Ay mice [2] (CA 3 weeks, particularly high-fat diet) is recorded as “increased hepatic cholesterol”. For the same compound, the “neutral lipids in liver sections (Oil Red O)” value in the test with KK-Ay mice [2] (high-fat diet with CA, 3 weeks) is on record as “accumulated less neutral lipids”. In the test with C57BL/6J mice (setting [5]), the SHP expression result is “increased SHP expression”; the “SREBP-1c and its target genes” value was “prevented the induction”. Besides, the “LXR agonist induction of liver weight and serum TGs” value in the test on C57BL/6J mice (coadministration of 0.5% CA with T0901317) is reported as “completely prevented”. Also, the “serum TGs” value in the test with SHP+/+ and SHP-/- mice (SHP+/+ mice, 0, 3 and 7 days) is “significantly lowered”. Also, the “hepatic expression of SREBP-1c, ME, CYP7A1 and ANGPTL3” value in the test on SHP+/+ and SHP-/- mice (SHP+/+ mice) is “significantly reduced”. Also, in the test with SHP+/+ and SHP-/- mice (SHP-/- mice), the “decrease in serum TGs” value is reported as “completely abolished”; the “hepatic expression of SREBP-1c, ME, CYP7A1 and ANGPTL3” value is “no decrease”. Besides, in the test with KK-Ay mice [3] (setting [6]), the body weight result is listed as “decreased body weight” and the “metabolic control (oral glucose tolerance test, intraperitoneal insulin tolerance test)” value is “improved metabolic control”. For the same compound, the insulin sensitivity entry in the test on KK-Ay mice [3] (KK-Ay mouse) is “improve insulin sensitivity”.
